Data as given in patent US12528812B2 (Genentech, Inc., priority 2020, dated 2026).

Experiments:
[1] = biological target: Recombinant human JAK2 kinase domain protein (Residues 812-1132) (Homo sapiens, UniProt O60674); test: JAK2 biochemical assay (LabChip mobility shift, Ki); settings: Biochem JAK2 Ki
[2] = system: IL-13-stimulated STAT6 phosphorylation in human lung bronchial epithelial BEAS-2B cell line; test: P-STAT6 BEAS-2B + IL-13 cell assay; assay type: cell-based; settings: Homo sapiens, BEAS-2B, BEAS2B cells, IL13 stimulation; read-out: Cellular JAK1 PSTAT6 BEAS2B + IL13
Outline: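 Phospho-STAT6 (Tyr641) was quantified in lysates by MSD electrochemiluminescence after human IL-13 challenge (250 ng/mL stock, 15 min, 37 °C). Before that, BEAS-2B cells cultured 48 h had 1 h compound exposure over 10 concentrations. Percent of control was fitted to a four-parameter logistic model to give IC50.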

[3] = biological target: T1, recombinant human JAK1 kinase domain protein (Residues 854-1154) (Homo sapiens, UniProt P23458); test: JAK1 biochemical assay (LabChip mobility shift, Ki); settings: read-out: Biochem JAK1 Ki
T1 construct: human JAK1 kinase domain protein (Residues 854-1154); purchased Proteros Biostructures GmbH (Martinsried, Germany); host or cells: insect cells
T1 sequence (P23458 854-1154): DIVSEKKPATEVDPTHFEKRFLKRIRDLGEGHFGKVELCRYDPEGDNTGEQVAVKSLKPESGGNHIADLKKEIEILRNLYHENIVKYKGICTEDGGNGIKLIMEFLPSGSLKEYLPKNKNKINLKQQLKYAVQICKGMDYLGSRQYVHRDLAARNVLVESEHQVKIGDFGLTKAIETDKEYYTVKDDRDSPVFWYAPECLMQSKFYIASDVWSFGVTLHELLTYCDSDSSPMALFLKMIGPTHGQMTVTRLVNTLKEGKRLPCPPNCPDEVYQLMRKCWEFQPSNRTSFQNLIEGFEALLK

Chain of Recombinant human JAK2 kinase domain protein (Residues 812-1132) (O60674 812-1132): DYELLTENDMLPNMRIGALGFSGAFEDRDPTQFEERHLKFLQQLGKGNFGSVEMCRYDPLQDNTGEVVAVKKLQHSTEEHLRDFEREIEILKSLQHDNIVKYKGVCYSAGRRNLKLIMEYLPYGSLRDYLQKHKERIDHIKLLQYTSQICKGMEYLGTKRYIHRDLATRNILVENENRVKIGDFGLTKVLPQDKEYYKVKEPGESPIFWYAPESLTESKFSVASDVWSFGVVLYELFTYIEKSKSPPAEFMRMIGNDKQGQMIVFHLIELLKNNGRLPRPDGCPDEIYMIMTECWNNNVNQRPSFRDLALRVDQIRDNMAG

Compound: Cn1cc(NC(=O)c2cnn3cccnc23)c(-c2cc(Oc3cccc(C4(F)CNC4)c3)ccc2OC(F)F)n1 [Example 70, N-[3-[2-(difluoromethoxy)-5-[3-(3-fluoroazetidin-3-yl)phenoxy]phenyl]-1-methyl-pyrazol-4-yl]pyrazolo[1,5-a]pyrimidine-3-carboxamide]
- Ki [1]: 0.26 nM
- IC50 [2]: 23 nM
- Ki [3]: 0.27 nM

Compound: COC1(c2cccc(Oc3ccc(OC(F)F)c(-c4nn(C)cc4NC(=O)c4cnn5cccnc45)c3)c2)CN(C)C1 [Example 71, N-[3-[2-(difluoromethoxy)-5-[3-(3-methoxy-1-methyl-azetidin-3-yl)phenoxy]phenyl]-1-methyl-pyrazol-4-yl]pyrazolo[1,5-a]pyrimidine-3-carboxamide]
- Ki [1]: 0.88 nM
- IC50 [2]: 47 nM
- Ki [3]: 0.94 nM

Compound: Cn1cc(NC(=O)c2cnn3cccnc23)c(-c2cc(Oc3cccc(CN[C@H]4C[C@H](O)C4)c3)ccc2OC(F)F)n1 [Example 72, N-[3-[2-(difluoromethoxy)-5-[3-[[(3-hydroxycyclobutyl)amino]methyl]phenoxy]phenyl]-1-methyl-pyrazol-4-yl]pyrazolo[1,5-a]pyrimidine-3-carboxamide]
- Ki [1]: 0.74 nM
- IC50 [2]: 62 nM
- Ki [3]: 0.91 nM

Compound: CN(C)CCn1cc(Oc2ccc(OC(F)F)c(-c3nn(C)cc3NC(=O)c3cnn4cccnc34)c2)cn1 [Example 73, N-[3-[2-(difluoromethoxy)-5-[1-[2-(dimethylamino)ethyl]pyrazol-4-yl]oxy-phenyl]-1-methyl-pyrazol-4-yl]pyrazolo[1,5-a]pyrimidine-3-carboxamide]
- Ki [1]: 1.7 nM
- IC50 [2]: 95 nM
- Ki [3]: 1.6 nM

Compound: Cc1cc(Oc2ccc(OC(F)F)c(-c3nn(C)cc3NC(=O)c3cnn4cccnc34)c2)ccc1C(=O)N(C)C [Example 74, N-[3-[2-(difluoromethoxy)-5-[4-(dimethylcarbamoyl)-3-methyl-phenoxy]phenyl]-1-methyl-pyrazol-4-yl]pyrazolo[1,5-a]pyrimidine-3-carboxamide]
- Ki [1]: 0.26 nM
- IC50 [2]: 30 nM
- Ki [3]: 0.61 nM

Compound: Cn1cc(NC(=O)c2cnn3cccnc23)c(-c2cc(Oc3ccc4c(c3)CN(CCO)CC4)ccc2OC(F)F)n1 [Example 76, N-[3-[2-(difluoromethoxy)-5-[[2-(2-hydroxyethyl)-3,4-dihydro-1H-isoquinolin-7-yl]oxy]phenyl]-1-methyl-pyrazol-4-yl]pyrazolo[1,5-a]pyrimidine-3-carboxamide]
- Ki [1]: 0.27 nM
- IC50 [2]: 12 nM
- Ki [3]: 0.4 nM

Compound: Cn1cc(NC(=O)c2cnn3cccnc23)c(-c2cc(Oc3cncc(CN)c3)ccc2OC(F)F)n1 [Example 77, N-[3-[5-[[5-(aminomethyl)-3-pyridyl]oxy]-2-(difluoromethoxy)phenyl]-1-methyl-pyrazol-4-yl]pyrazolo[1,5-a]pyrimidine-3-carboxamide]
- Ki [1]: 2.5 nM
- IC50 [2]: 33 nM
- Ki [3]: 2.6 nM

Compound: CN(C)C(=O)c1cc(Oc2ccc(OC(F)F)c(-c3nn(C)cc3NC(=O)c3cnn4cccnc34)c2)ccc1Cl [Example 78, N-[3-[5-[4-chloro-3-(dimethylcarbamoyl)phenoxy]-2-(difluoromethoxy)phenyl]-1-methyl-pyrazol-4-yl]pyrazolo[1,5-a]pyrimidine-3-carboxamide]
- Ki [1]: 0.22 nM
- IC50 [2]: 21 nM
- Ki [3]: 0.31 nM

Compound: Cn1cc(NC(=O)c2cnn3cccnc23)c(-c2cc(Oc3cccc(C(=O)N4CCNCC4)c3)ccc2OC(F)F)n1 [Example 80, N-[3-[2-(difluoromethoxy)-5-[3-(piperazine-1-carbonyl)phenoxy]phenyl]-1-methyl-pyrazol-4-yl]pyrazolo[1,5-a]pyrimidine-3-carboxamide]
- Ki [1]: 0.35 nM
- IC50 [2]: 61 nM
- Ki [3]: 0.35 nM

Compound: Cn1cc(NC(=O)c2cnn3cccnc23)c(-c2cc(Oc3cccc(C(=O)N4CCC(N5CCOCC5)CC4)c3)ccc2OC(F)F)n1 [Example 81, N-[3-[2-(difluoromethoxy)-5-[3-(4-morpholinopiperidine-1-carbonyl)phenoxy]phenyl]-1-methyl-pyrazol-4-yl]pyrazolo[1,5-a]pyrimidine-3-carboxamide]
- Ki [1]: 0.48 nM
- IC50 [2]: 26 nM
- Ki [3]: 0.47 nM

Compound: CN1CCN(C(=O)c2cccc(Oc3ccc(OC(F)F)c(-c4nn(C)cc4NC(=O)c4cnn5cccnc45)c3)c2)CC1 [Example 84, N-[3-[2-(difluoromethoxy)-5-[3-(4-methylpiperazine-1-carbonyl)phenoxy]phenyl]-1-methyl-pyrazol-4-yl]pyrazolo[1,5-a]pyrimidine-3-carboxamide]
- Ki [1]: 0.47 nM
- IC50 [2]: 74 nM
- Ki [3]: 0.48 nM

Compound: Cc1cc(Oc2ccc(OC(F)F)c(-c3nn(C)cc3NC(=O)c3cnn4cccnc34)c2)ccc1C(=O)N1CCN(C)CC1 [Example 85, N-[3-[2-(difluoromethoxy)-5-[3-methyl-4-(4-methylpiperazine-1-carbonyl)phenoxy]phenyl]-1-methyl-pyrazol-4-yl]pyrazolo[1,5-a]pyrimidine-3-carboxamide]
- Ki [1]: 0.4 nM
- IC50 [2]: 110 nM
- Ki [3]: 1.3 nM

Compound: CN1CCN(C(=O)c2ccc(Oc3ccc(OC(F)F)c(-c4nn(C)cc4NC(=O)c4cnn5cccnc45)c3)cc2)CC1 [Example 86, N-[3-[2-(difluoromethoxy)-5-[4-(4-methylpiperazine-1-carbonyl)phenoxy]phenyl]-1-methyl-pyrazol-4-yl]pyrazolo[1,5-a]pyrimidine-3-carboxamide]
- Ki [1]: 0.56 nM
- IC50 [2]: 77 nM
- Ki [3]: 1.1 nM

Compound: Cn1cc(NC(=O)c2cnn3cccnc23)c(-c2cc(Oc3cccc(C4CNC4)c3)ccc2OC(F)F)n1 [Example 87, N-[3-[5-[3-(azetidin-3-yl)phenoxy]-2-(difluoromethoxy)phenyl]-1-methyl-pyrazol-4-yl]pyrazolo[1,5-a]pyrimidine-3-carboxamide]
- Ki [1]: 0.41 nM
- IC50 [2]: 36 nM
- Ki [3]: 0.26 nM

Compound: CN(C)C(=O)c1ccc(Oc2ccc(OC(F)F)c(-c3nn(C)cc3NC(=O)c3cnn4cccnc34)c2)cc1 [Example 88, N-[3-[2-(difluoromethoxy)-5-[4-(dimethylcarbamoyl)phenoxy]phenyl]-1-methyl-pyrazol-4-yl]pyrazolo[1,5-a]pyrimidine-3-carboxamide]
- Ki [1]: 0.24 nM
- IC50 [2]: 15 nM
- Ki [3]: 0.31 nM

Compound: CN1CCN(C(=O)Cn2cc(Oc3ccc(OC(F)F)c(-c4nn(C)cc4NC(=O)c4cnn5cccnc45)c3)cn2)CC1 [Example 90, N-[3-[2-(difluoromethoxy)-5-[1-[2-(4-methylpiperazin-1-yl)-2-oxo-ethyl]pyrazol-4-yl]oxy-phenyl]-1-methyl-pyrazol-4-yl]pyrazolo[1,5-a]pyrimidine-3-carboxamide]
- Ki [1]: 0.31 nM
- IC50 [2]: 52 nM
- Ki [3]: 0.59 nM

Compound: Cn1cc(NC(=O)c2cnn3cccnc23)c(-c2cc(Oc3cc(CNCCO)ccc3F)ccc2OC(F)F)n1 [Example 91, N-[3-[2-(difluoromethoxy)-5-[2-fluoro-5-[(2-hydroxyethylamino)methyl]phenoxy]phenyl]-1-methyl-pyrazol-4-yl]pyrazolo[1,5-a]pyrimidine-3-carboxamide]
- Ki [1]: 0.4 nM
- IC50 [2]: 17 nM
- Ki [3]: 0.32 nM

Compound: CN(CCN1CCOCC1)C(=O)c1cccc(Oc2ccc(OC(F)F)c(-c3nn(C)cc3NC(=O)c3cnn4cccnc34)c2)c1 [Example 92, N-[3-[2-(difluoromethoxy)-5-[3-[methyl(2-morpholinoethyl)carbamoyl]phenoxy]phenyl]-1-methyl-pyrazol-4-yl]pyrazolo[1,5-a]pyrimidine-3-carboxamide]
- Ki [1]: 0.68 nM
- IC50 [2]: 56 nM
- Ki [3]: 1.1 nM

Compound: Cn1cc(NC(=O)c2cnn3cccnc23)c(-c2cc(Oc3cc(F)cc(C4(O)CNC4)c3)ccc2OC(F)F)n1 [Example 95, N-[3-[2-(difluoromethoxy)-5-[3-fluoro-5-(3-hydroxyazetidin-3-yl)phenoxy]phenyl]-1-methyl-pyrazol-4-yl]pyrazolo[1,5-a]pyrimidine-3-carboxamide]
- Ki [1]: 0.23 nM
- IC50 [2]: 110 nM
- Ki [3]: 0.17 nM

Compound: CN1CC(O)(c2cccc(Oc3ccc(OC(F)F)c(-c4nn(CCO)cc4NC(=O)c4cnn5cccnc45)c3)c2)C1 [Example 97, N-[3-[2-(difluoromethoxy)-5[3-(3-hydroxy-1-methyl-azetidin-3-yl)phenoxy]phenyl]-1-(2-hydroxyethyl)pyrazol-4-yl]pyrazolo[1,5-a]pyrimidine-3-carboxamide]
- Ki [1]: 0.6 nM
- IC50 [2]: 300 nM
- Ki [3]: 0.85 nM

Compound: CN1CC(O)(c2cccc(Oc3ccc(OC(F)F)c(-c4nn(C5CCOCC5)cc4NC(=O)c4cnn5cccnc45)c3)c2)C1 [Example 98, N-[3-[2-(difluoromethoxy)-5-[3-(3-hydroxy-l-methyl-azetidin-3-yl)phenoxy]phenyl]-1-tetrahydropyran-4-yl-pyrazol-4-yl]pyrazolo[1,5-a]pyrimidine-3-carboxamide]
- Ki [1]: 2.8 nM
- IC50 [2]: 61 nM
- Ki [3]: 0.87 nM

Compound: Cn1cc(NC(=O)c2cnn3cccnc23)c(-c2cc(Oc3cc(Cl)cc(C4(O)CNC4)c3)ccc2OC(F)F)n1 [Example 99, N-[3-[5-[3-chloro-5-(3-hydroxyazetidin-3-yl)phenoxy]-2-(difluoromethoxy)phenyl]-1-methyl-pyrazol-4-yl]pyrazolo[1,5-a]pyrimidine-3-carboxamide]
- Ki [1]: 0.31 nM
- IC50 [2]: 78 nM
- Ki [3]: 0.19 nM
